# Reference: patent US20150105252A1, “SUBSTITUTED PYRAZOLES AS HERBICIDES” (E I DU PONT DE NEMOURS AND COMPANY, priority 2013, published 2015)
# Tests used:
# [1] = tested on: wheat; test: Test A postemergence; assay type: in vivo, Triticum aestivum
# Method in brief: (§1)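 Seeds were sown in a loam soil–sand blend and given a directed soil spray preemergence; postemergence plants at 2–10 cm, one- to two-leaf stage, were sprayed with compound in non-phytotoxic solvent with surfactant. After about 10 days in a greenhouse, injury was visually rated against untreated controls (0 = no effect, 100 = complete control).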
# [2] = tested on: pigweed; test: Test A preemergence; assay type: in vivo, Amaranthus retroflexus; settings: preemergence; for Pigweed plant response rating (0 to 100 scale): 125 g ai/ha, visual injury approx. 10 days after treatment; for Pigweed plant response rating: 500 g ai/ha, visual injury after approx. 10 days, 0 to 100 scale (0 no effect, 100 complete control)
# Method in brief: as §1
# [3] = tested on: morningglory; test: Test A preemergence; assay type: in vivo, Ipomoea spp.; settings: preemergence; for Morningglory plant response rating (0 to 100 scale): 125 g ai/ha, visual injury approx. 10 days after treatment; for Morningglory plant response rating: 500 g ai/ha, visual injury after approx. 10 days, 0 to 100 scale (0 no effect, 100 complete control)
# Method in brief: as §1
# [4] = tested on: foxtail, giant; test: Test A preemergence; assay type: in vivo, Setaria faberii; settings: preemergence; for Foxtail, Giant plant response rating (0 to 100 scale): 125 g ai/ha, visual injury approx. 10 days after treatment; for Foxtail, Giant plant response rating: 500 g ai/ha, visual injury after approx. 10 days, 0 to 100 scale (0 no effect, 100 complete control)
# Method in brief: as §1
# [5] = tested on: morningglory; test: Test A postemergence; assay type: in vivo, Ipomoea spp.
# Method in brief: as §1
# [6] = tested on: wheat; test: Test A preemergence; assay type: in vivo, Triticum aestivum; settings: preemergence; for Wheat plant response rating (0 to 100 scale): 125 g ai/ha, visual injury approx. 10 days after treatment; for Wheat plant response rating: 500 g ai/ha, visual injury after approx. 10 days, 0 to 100 scale (0 no effect, 100 complete control)
# Method in brief: as §1
# [7] = tested on: velvetleaf; test: Test A postemergence; assay type: in vivo, Abutilon theophrasti
# Method in brief: as §1
# [8] = tested on: barnyardgrass; test: Test A postemergence; assay type: in vivo, Echinochloa crus-galli
# Method in brief: as §1
# [9] = tested on: barnyardgrass; test: Test A preemergence; assay type: in vivo, Echinochloa crus-galli; settings: preemergence; for Barnyardgrass plant response rating (0 to 100 scale, 0 is no effect, 100 is complete control): visual injury approx. 10 days after treatment
# Method in brief: as §1
# [10] = tested on: barnyardgrass; test: Test B flood; assay type: in vivo, Echinochloa crus-galli; settings: 250 g ai/ha, visual rating on 0 to 100 scale (0 no effect, 100 complete control), 13 to 15 days
# Method in brief: (§2)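 Two-leaf-stage plants, pots flooded (3 cm above soil) and treated through the water, which stayed at that depth. After 13–15 days in greenhouse conditions, visual assessment versus controls: 0 is no effect, 100 complete control, dash means no result.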
# [11] = tested on: crabgrass, large; test: Test A postemergence; assay type: in vivo, Digitaria sanguinalis
# Method in brief: as §1
# [12] = tested on: foxtail, giant; test: Test A postemergence; assay type: in vivo, Setaria faberii
# Method in brief: as §1
# [13] = tested on: ducksalad; test: Test B flood; assay type: in vivo, Heteranthera limosa; settings: 250 g ai/ha, visual rating on 0 to 100 scale (0 no effect, 100 complete control), 13 to 15 days
# Method in brief: as §2
# [14] = tested on: pigweed; test: Test A postemergence; assay type: in vivo, Amaranthus retroflexus
# Method in brief: as §1
# [15] = tested on: corn; test: Test A preemergence; assay type: in vivo, Zea mays; settings: preemergence; for Corn plant response rating (0 to 100 scale): 125 g ai/ha, visual injury approx. 10 days after treatment; for Corn plant response rating: 500 g ai/ha, visual injury after approx. 10 days, 0 to 100 scale (0 no effect, 100 complete control)
# Method in brief: as §1
# [16] = tested on: rice; test: Test B flood; assay type: in vivo, Oryza sativa; settings: 250 g ai/ha, visual rating on 0 to 100 scale (0 no effect, 100 complete control), 13 to 15 days
# Method in brief: as §2
# [17] = tested on: velvetleaf; test: Test A preemergence; assay type: in vivo, Abutilon theophrasti; settings: preemergence; for Velvetleaf plant response rating (0 to 100 scale): 125 g ai/ha, visual injury approx. 10 days after treatment; for Velvetleaf plant response rating: 500 g ai/ha, visual injury after approx. 10 days, 0 to 100 scale (0 no effect, 100 complete control)
# Method in brief: as §1
# [18] = tested on: sedge, umbrella; test: Test B flood; assay type: in vivo, Cyperus difformis; settings: 250 g ai/ha, visual rating on 0 to 100 scale (0 no effect, 100 complete control), 13 to 15 days
# Method in brief: as §2
# [19] = tested on: crabgrass, large; test: Test A preemergence; assay type: in vivo, Digitaria sanguinalis; settings: preemergence; for Crabgrass, Large plant response rating (0 to 100 scale): 125 g ai/ha, visual injury approx. 10 days after treatment; for Crabgrass, Large plant response rating: 500 g ai/ha, visual injury after approx. 10 days, 0 to 100 scale (0 no effect, 100 complete control)
# Method in brief: as §1
# [20] = tested on: corn; test: Test A postemergence; assay type: in vivo, Zea mays
# Method in brief: as §1
# [21] = Postemergence, 125 g ai/ha, 0 to 100 scale, 0 no effect, 100 complete control
# [22] = Postemergence, 500 g ai/ha, 0 to 100 scale (0 no effect, 100 complete control)
# [23] = 500 g ai/ha, visual injury after approx. 10 days, 0 to 100 scale (0 no effect, 100 complete control)
# [24] = postemergence, 125 g ai/ha, about 10 days, visual rating on 0 to 100 scale (0 no effect, 100 complete control)
# [25] = 125 g ai/ha, visual injury, 0 to 100 scale, approx. 10 days
smiles,measurement,setting,value
CCc1cc(C(=O)NCC(F)(F)F)nn1Oc1cccc(C(F)(F)F)c1 [Compound 218],Wheat plant response rating,[1]; [21],0
same,Wheat plant response rating,[1]; [22],10
same,Pigweed plant response rating (0 to 100 scale),[2],0
same,Morningglory plant response rating (0 to 100 scale),[3],0
same,"Foxtail, Giant plant response rating (0 to 100 scale)",[4],0
same,"Foxtail, Giant plant response rating",[4],40
same,Morningglory plant response rating,[5]; [21],50
same,Morningglory plant response rating,[5]; [22],100
same,Wheat plant response rating (0 to 100 scale),[6],0
same,Velvetleaf plant response rating,[7]; [21],0
same,Velvetleaf plant response rating,[7]; [22],40
same,Barnyardgrass plant response rating,[8]; [21],0
same,Barnyardgrass plant response rating,[8]; [22],20
same,"Barnyardgrass plant response rating (0 to 100 scale, 0 is no effect, 100 is complete control)",[9]; 125 g ai/ha,0
same,Barnyardgrass plant response rating,[9]; [23],40
same,"Plant response rating, Barnyardgrass",[10],0
same,"Crabgrass, Large plant response rating",[11]; [21],20
same,"Crabgrass, Large plant response rating",[11]; [22],40
same,"Foxtail, Giant plant response rating",[12]; [21],20
same,"Foxtail, Giant plant response rating",[12]; [22],30
same,"Plant response rating, Ducksalad",[13],0
same,Pigweed plant response rating,[14]; [21],50
same,Pigweed plant response rating,[14]; [22],80
same,Corn plant response rating (0 to 100 scale),[15],0
same,Corn plant response rating,[15],0
same,"Plant response rating, Rice",[16],0
same,Velvetleaf plant response rating (0 to 100 scale),[17],0
same,"Plant response rating, Sedge, Umbrella",[18],0
same,"Crabgrass, Large plant response rating (0 to 100 scale)",[19],10
same,"Crabgrass, Large plant response rating",[19],80
same,Corn plant response rating,[20]; [21],10
same,Corn plant response rating,[20]; [22],20
CCc1cc(C(=O)NC2CC2)nn1Cc1nnc(C(F)(F)F)o1 [Compound 172],Wheat plant response rating,[1]; [22],0
same,Wheat plant response rating,[1]; [24],0
same,Pigweed plant response rating (0 to 100 scale),[2],80
same,Pigweed plant response rating,[2],100
same,Morningglory plant response rating (0 to 100 scale),[3],30
same,Morningglory plant response rating,[3],40
same,"Foxtail, Giant plant response rating (0 to 100 scale)",[4],20
same,"Foxtail, Giant plant response rating",[4],50
same,Morningglory plant response rating,[5]; [22],70
same,Morningglory plant response rating,[5]; [24],30
same,Wheat plant response rating (0 to 100 scale),[6],0
same,Wheat plant response rating,[6],0
same,Velvetleaf plant response rating,[7]; [22],20
same,Velvetleaf plant response rating,[7]; [24],10
same,Barnyardgrass plant response rating,[8]; [22],10
same,Barnyardgrass plant response rating,[8]; [24],0
same,Barnyardgrass plant response rating,[9]; [25],0
same,Barnyardgrass plant response rating,[9]; [23],50
same,"Plant response rating, Barnyardgrass",[10],0
same,"Crabgrass, Large plant response rating",[11]; [22],20
same,"Crabgrass, Large plant response rating",[11]; [24],10
same,"Foxtail, Giant plant response rating",[12]; [22],10
same,"Foxtail, Giant plant response rating",[12]; [24],0
same,"Plant response rating, Ducksalad",[13],0
same,Pigweed plant response rating,[14]; [22],80
same,Pigweed plant response rating,[14]; [24],30
same,Corn plant response rating (0 to 100 scale),[15],0
same,Corn plant response rating,[15],10
same,"Plant response rating, Rice",[16],0
same,Velvetleaf plant response rating (0 to 100 scale),[17],10
same,Velvetleaf plant response rating,[17],20
same,"Plant response rating, Sedge, Umbrella",[18],0
same,"Crabgrass, Large plant response rating (0 to 100 scale)",[19],50
same,"Crabgrass, Large plant response rating",[19],90
same,Corn plant response rating,[20]; [22],10
same,Corn plant response rating,[20]; [24],0
CCCNC(=O)c1cc(Br)n(Cc2cccc(C(F)(F)F)c2)n1 [Compound 159],Wheat plant response rating,[1]; [22],20
same,Wheat plant response rating,[1]; [24],0
same,Pigweed plant response rating (0 to 100 scale),[2],10
same,Pigweed plant response rating,[2],60
same,Morningglory plant response rating (0 to 100 scale),[3],0
same,Morningglory plant response rating,[3],0
same,"Foxtail, Giant plant response rating (0 to 100 scale)",[4],0
same,"Foxtail, Giant plant response rating",[4],30
same,Morningglory plant response rating,[5]; [22],40
same,Morningglory plant response rating,[5]; [24],30
same,Wheat plant response rating (0 to 100 scale),[6],0
same,Wheat plant response rating,[6],0
same,Velvetleaf plant response rating,[7]; [22],70
same,Velvetleaf plant response rating,[7]; [24],60
same,Barnyardgrass plant response rating,[8]; [22],30
same,Barnyardgrass plant response rating,[8]; [24],0
same,Barnyardgrass plant response rating,[9]; [25],0
same,Barnyardgrass plant response rating,[9]; [23],20
same,"Plant response rating, Barnyardgrass",[10],0
same,"Crabgrass, Large plant response rating",[11]; [22],30
same,"Crabgrass, Large plant response rating",[11]; [24],20
same,"Foxtail, Giant plant response rating",[12]; [22],30
same,"Foxtail, Giant plant response rating",[12]; [24],20
same,"Plant response rating, Ducksalad",[13],0
same,Pigweed plant response rating,[14]; [22],60
same,Pigweed plant response rating,[14]; [24],50
same,Corn plant response rating (0 to 100 scale),[15],0
same,Corn plant response rating,[15],0
same,"Plant response rating, Rice",[16],0
same,Velvetleaf plant response rating (0 to 100 scale),[17],0
same,Velvetleaf plant response rating,[17],0
same,"Plant response rating, Sedge, Umbrella",[18],0
same,"Crabgrass, Large plant response rating (0 to 100 scale)",[19],10
same,"Crabgrass, Large plant response rating",[19],90
same,Corn plant response rating,[20]; [22],20
same,Corn plant response rating,[20]; [24],10
CCCNC(=O)c1cc(CC)n(Cc2cc(C(F)(F)C(F)(F)F)nn2C)n1 [Compound 229],Wheat plant response rating,[1]; [21],40
same,Wheat plant response rating,[1]; [22],70
same,Pigweed plant response rating (0 to 100 scale),[2],100
same,Morningglory plant response rating (0 to 100 scale),[3],50
same,"Foxtail, Giant plant response rating (0 to 100 scale)",[4],90
same,"Foxtail, Giant plant response rating",[4],100
same,Morningglory plant response rating,[5]; [21],70
same,Morningglory plant response rating,[5]; [22],100
same,Wheat plant response rating (0 to 100 scale),[6],20
same,Velvetleaf plant response rating,[7]; [21],50
same,Velvetleaf plant response rating,[7]; [22],80
same,Barnyardgrass plant response rating,[8]; [21],50
same,Barnyardgrass plant response rating,[8]; [22],90
same,"Barnyardgrass plant response rating (0 to 100 scale, 0 is no effect, 100 is complete control)",[9]; 125 g ai/ha,50
same,Barnyardgrass plant response rating,[9]; [23],100
same,"Plant response rating, Barnyardgrass",[10],60
same,"Crabgrass, Large plant response rating",[11]; [21],50
same,"Crabgrass, Large plant response rating",[11]; [22],90
same,"Foxtail, Giant plant response rating",[12]; [21],60
same,"Foxtail, Giant plant response rating",[12]; [22],90
same,"Plant response rating, Ducksalad",[13],100
same,Pigweed plant response rating,[14]; [21],90
same,Pigweed plant response rating,[14]; [22],100
same,Corn plant response rating (0 to 100 scale),[15],10
same,Corn plant response rating,[15],50
same,"Plant response rating, Rice",[16],40
same,Velvetleaf plant response rating (0 to 100 scale),[17],40
same,"Plant response rating, Sedge, Umbrella",[18],95
same,"Crabgrass, Large plant response rating (0 to 100 scale)",[19],100
same,"Crabgrass, Large plant response rating",[19],100
same,Corn plant response rating,[20]; [21],40
same,Corn plant response rating,[20]; [22],70
